One test concerns PV-interneurons. The test is described as follows: parvalbumin and GAD67 immunoreactivity in PV-interneurons in primary neuronal cultures. The conditions noted are these: co-exposure with ketamine 24 h; muscimol 10 μM, C3, apocynin 0.5 mM.
A further test has as its target T1, NADPH oxidase (Mus musculus, UniProt Q61093).
T1 sequence (Q61093 1-570): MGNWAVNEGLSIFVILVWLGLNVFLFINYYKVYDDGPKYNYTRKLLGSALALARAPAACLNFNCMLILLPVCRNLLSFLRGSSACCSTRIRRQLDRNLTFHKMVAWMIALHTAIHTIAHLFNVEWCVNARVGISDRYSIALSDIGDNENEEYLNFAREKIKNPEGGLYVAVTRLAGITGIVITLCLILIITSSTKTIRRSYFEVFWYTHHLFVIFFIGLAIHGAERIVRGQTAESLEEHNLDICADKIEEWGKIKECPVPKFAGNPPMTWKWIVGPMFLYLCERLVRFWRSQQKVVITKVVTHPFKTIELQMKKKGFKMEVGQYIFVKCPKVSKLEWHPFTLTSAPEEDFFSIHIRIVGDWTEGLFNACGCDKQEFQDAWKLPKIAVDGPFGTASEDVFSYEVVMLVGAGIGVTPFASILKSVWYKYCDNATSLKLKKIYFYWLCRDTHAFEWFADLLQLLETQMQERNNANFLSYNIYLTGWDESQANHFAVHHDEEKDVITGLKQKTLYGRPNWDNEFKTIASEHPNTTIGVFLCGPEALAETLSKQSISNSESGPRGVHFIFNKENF
T1 sequence (Q61462 1-192 partner): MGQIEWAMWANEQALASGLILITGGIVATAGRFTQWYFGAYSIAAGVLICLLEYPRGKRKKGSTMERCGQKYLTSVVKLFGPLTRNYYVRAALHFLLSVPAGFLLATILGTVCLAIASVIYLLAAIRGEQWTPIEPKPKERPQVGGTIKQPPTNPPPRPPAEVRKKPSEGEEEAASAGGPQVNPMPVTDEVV
The test is described as follows: EPR superoxide production by forebrain synaptosomes exposed to IL-6. The conditions noted are these: apocynin 0.4 mM applied 5 min before IL-6. Format: biochemical.

Entries after “also recorded” stand apart in the source; their conditions may differ.

On to `COc1cc(C(C)=O)ccc1O` [apocynin, 4-hydroxy-3-methoxyacetophenone], for which, in the test with PV-interneurons, the “effect on ketamine-mediated loss of parvalbumin and GAD67 immunoreactivity in PV-interneurons” value is “prevented; also recorded: attenuated”. The “effect on IL-6-induced increase in superoxide (EPR)” value at NADPH oxidase was “completely blocked”.
